Laboratory results from US20240101548A1, “HYDROXAMATE COMPOUND, PREPARATION METHOD THEREFOR AND APPLICATION THEREOF” (SHENZHEN CHIPSCREEN BIOSCIENCES CO., LTD., priority 2020, published 2024).
Like-named read-outs stand apart in the source and are kept apart here.

Tests used:
Assay type in all cases: cell-based, human
[1] = system: IL-10-induced JAK1/TYK2 signal pathway; assay: IL-10-induced JAK1/TYK2 signal pathway STAT3-Luc reporter gene assay in U2OS cells; details: Homo sapiens, U2OS cells, STAT3-Luc reporter, IL-10 10 ng/mL, read-out: Half inhibition dose (IC50) on IL-10-induced JAK1/TYK2 signal pathway
How it was run: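 U2OS cells co-transfected with IL-10R1-EGFP and STAT3-luciferase reporter plasmids; after 24 h, compound added (0–300 nM) for 6 h before 10 ng/mL human IL-10, then 24 h culture. Luciferase signal normalised to GFP for transfection efficiency; IC50 from inhibition rates.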

[2] = system: IL-2-induced JAK1/JAK3 signal pathway; assay: IL-2-induced proliferation of KHYG-1 cells (JAK1/JAK3 signal); details: Homo sapiens; KHYG-1 cell proliferation, IL-2 10 ng/mL, 72 hours; read-out: Inhibition activity IC50 on IL-2-induced JAK1/JAK3 signal pathway
How it was run: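 KHYG-1 NK lymphoma cells were cultured with IL-2 and test compound at various doses for 72 h at 37 °C and 5% CO2, and proliferation was read with alamarBlue fluorescence. Inhibition was normalized to wells without compound or cytokine (0%) and IL-2 wells without compound (100%), and C50 was derived from the dose-inhibition data.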

[3] = system: EPO-induced JAK2 signal pathway; assay: EPO-induced proliferation of UT-7 cells (JAK2 signal); details: Homo sapiens, UT7; UT-7 cell proliferation, EPO 10 ng/mL, 72 hours; read-out: Inhibition activity IC50 on EPO-induced JAK2 signal pathway
How it was run: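 UT-7 cells (15000/well) stimulated with 10 ng/mL human recombinant EPO plus compound at final 0, 100, 1000 or 10000 nM, 72 h at 37° C., 5% CO2. Proliferation by alamarBlue fluorescence (Ex530/Em590); inhibition normalised to no-cytokine/no-compound (0) and EPO-only (100) wells, […] derived from dose-inhibition.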

Row | Structure (SMILES) | IC50 [1] [µM] | IC50 [2] [µM] | IC50 [3] [µM] | IC50 ([1]; U2OS) [µM]
1 | CCONC(=O)c1cnc(Nc2ncc(F)cc2F)cc1Nc1cccc(-c2ncccn2)c1OC [Example 242, 6-((3,5-difluoropyridin-2-yl)amino)-N-ethoxy-4-((2-methoxy-3-(pyrimidin-2-yl)phenyl)amino)nicotinamide] | 0.00212 | > 10 | > 10 | –
2 | CONC(=O)c1cnc(Nc2ccc(F)cn2)cc1Nc1ccccc1N(C)S(C)(=O)=O [Example 4, 6-((5-fluoropyridin-2-yl)amino)-N-methoxy-4-((2-(N-methylmethanesulfonamido)phenyl)amino)nicotinamide] | – | > 10 | > 10 | 0.000705
3 | CCONC(=O)c1cnc(Nc2ccn(C)n2)cc1Nc1ccc(C2CC2)cc1N(C)S(C)(=O)=O [Example 160, 4-((4-cyclopropyl-2-(N-methylmethanesulfonamido)phenyl)amino)-N-ethoxy-6-((1-methyl-1H-pyrazol-3-yl)amino)nicotinamide] | – | > 10 | > 10 | 0.000442
4 | CCONC(=O)c1cnc(Nc2cc(C)nc(C)n2)cc1Nc1ccc(CC)cc1N(C)S(C)(=O)=O [Example 180] | 0.00113 | > 10 | > 10 | –
5 | C#Cc1ccc(Nc2cc(Nc3cccc(F)n3)ncc2C(=O)NOC)c(N(C)S(C)(=O)=O)c1 [Example 19] | – | > 10 | > 10 | 0.00106
6 | CONC(=O)c1cnc(Nc2ccc(OC)cn2)cc1Nc1ccc(C2CC2)cc1N(C)S(C)(=O)=O [Example 16, 4-((4-cyclopropyl-2-(N-methylmethanesulfonamido)phenyl)amino)-N-methoxy-6-((5-methoxypyridin-2-yl)amino)nicotinamide] | – | > 10 | > 10 | 0.00127
7 | CNC(=O)c1cnc(Nc2ccc(F)cn2)cc1Nc1ccccc1N(C)S(C)(=O)=O [Example 100, 6-((5-fluoropyridin-2-yl)amino)-N-methyl-4-((2-(N-methylmethanesulfonamido)phenyl)amino)nicotinamide] | – | > 10 | > 10 | 0.017
8 | CONC(=O)c1cnc(NC(=O)C2CC2)cc1Nc1cccc(-n2cccn2)c1OC [Example 41, 6-(cyclopropylcarboxamido)-N-methoxy-4-((2-methoxy-3-(1H-pyrazol-1-yl)phenyl)amino)nicotinamide] | 0.0017 | > 10 | > 10 | –
9 | CCONC(=O)c1cnc(Nc2ccc(F)nc2)cc1Nc1ccc(C2CC2)cc1N(C)S(C)(=O)=O [Example 237, 4-((4-cyclopropyl-2-(N-methylmethanesulfonamido)phenyl)amino)-N-ethoxy-6-((6-fluoropyridin-3-yl)amino)nicotinamide] | – | > 10 | > 10 | 0.000395
10 | CCONC(=O)c1cnc(Nc2ncc(F)cc2F)cc1Nc1cc(F)cc(-c2ncc(F)cn2)c1OC [Example 234, 6-((3,5-difluoropyridin-2-yl)amino)-N-ethoxy-4-((5-fluoro-3-(5-fluoropyrimidin-2-yl)-2-methoxyphenyl)amino)nicotinamide] | – | > 10 | > 10 | 0.000368
11 | CONC(=O)c1cnc(NC(=O)C2CC2)cc1Nc1ccc(OCC2CC2)cc1N(C)S(C)(=O)=O [Example 63, 6-(cyclopropylcarboxamido)-4-((4-(cyclopropylmethoxy)-2-(N-methylmethanesulfonamido)phenyl)amino)-N-methoxy nicotinamide] | – | > 10 | > 10 | 0.000865
12 | CCONC(=O)c1cnc(Nc2cc(C)nc(C)n2)cc1Nc1ccc(C)cc1N(C)S(=O)(=O)C1CC1 [Example 175] | – | > 10 | > 10 | 0.000839
13 | [2H]C([2H])([2H])Oc1c(Nc2cc(Nc3cc(C)nc(C)n3)ncc2C(=O)NOCC)cccc1-c1ncc(F)cn1 [Example 273, 6-((2,6-dimethylpyrimidin-4-yl)amino)-N-ethoxy-4-((3-(5-fluoropyrimidin-2-yl)-2-(methoxy-d3)phenyl)amino)nicotinamide] | – | > 10 | > 10 | 0.00219
14 | [2H]C([2H])([2H])ONC(=O)c1cnc(Nc2cccc(F)n2)cc1Nc1ccc(C2CC2)cc1N(C)S(C)(=O)=O [Example 68, 4-((4-cyclopropyl-2-(N-methylmethanesulfonamido)phenyl)amino)-6-((6-fluoropyridin-2-yl)amino)-N-(methoxy-d3)nicotinamide] | – | > 10 | > 10 | 0.00131
15 | CCONC(=O)c1cnc(Nc2cc(C)nc(C)n2)cc1Nc1ccc(C2CC2)cc1N(C)S(=O)(=O)C1CC1 [Example 189] | – | > 10 | > 10 | 0.000825
16 | C#Cc1ccc(Nc2cc(Nc3cccc(F)n3)ncc2C(=O)NOCC)c(N(C)S(C)(=O)=O)c1 [Example 143, N-ethoxy-4-((4-ethynyl-2-(N-methylmethanesulfonamido)phenyl)amino)-6-(6-fluoropyridin-2-ylamino)nicotinamide] | – | > 10 | > 10 | 0.000496
17 | C#Cc1ccc(Nc2cc(Nc3cc(C)nc(C)n3)ncc2C(=O)NOCC)c(N(C)S(C)(=O)=O)c1 [Example 127, 6-((2,6-dimethylpyrimidin-4-yl)amino)-N-ethoxy-4-((4-ethynyl-2-(N-methylmethanesulfonamido)phenyl)amino)nicotinamide] | – | > 10 | > 10 | 0.000776
18 | CONC(=O)c1cnc(NC(=O)C2CC2)cc1Nc1cccc(-c2ncn(C)n2)c1OC [Example 69, 6-(cyclopropylcarboxamido)-N-methoxy-4-((2-methoxy-3-(1-methyl-1H-1,2,4-triazol-3-yl)phenyl)amino)-nicotinamide] | 0.00278 | > 10 | > 10 | –
19 | CCONC(=O)c1cnc(Nc2ccnc(OC)n2)cc1Nc1ccc(C2CC2)cc1N(C)S(C)(=O)=O [Example 179, 4-((4-cyclopropyl-2-(N-methylmethanesulfonamido)phenyl)amino)-N-ethoxy-6-((2-methoxypyrimidin-4-yl)amino)nicotinamide] | – | > 10 | > 10 | 0.00131
20 | CONC(=O)c1cnc(Nc2cc(C)nc(C)n2)cc1Nc1ccc(C2CC2)cc1N(C)S(C)(=O)=O [Example 112] | – | > 10 | > 10 | 0.000711
21 | CCONC(=O)c1cnc(Nc2ccnc(C)n2)cc1Nc1cc(F)cc(-c2ncn(C3CC3)n2)c1OC [Example 245, 4-((3-(1-cyclopropyl-1H-1,2,4-triazol-3-yl)-5-fluoro-2-methoxyphenyl)amino)-N-ethoxy-6-((2-methylpyrimidin-4-yl)amino)nicotinamide] | – | > 10 | > 10 | 0.00192
22 | CCONC(=O)c1cnc(Nc2ccc(C3CC3)cn2)cc1Nc1ccc(OC)cc1N(C)S(C)(=O)=O [Example 155, 6-((5-cyclopropylpyridin-2-yl)amino)-N-ethoxy-4-((4-methoxy-2-(N-methylmethanesulfonamido)phenyl)amino)nicotinamide] | – | > 10 | > 10 | 0.00179
23 | CONC(=O)c1cnc(NC(=O)C2CC2)cc1Nc1ccc(C(F)(F)F)cc1N(C)S(C)(=O)=O [Example 10, 6-(cyclopropylcarboxamido)-N-methoxy-4-((2-(N-methylmethanesulfonamido)-4-(trifluoromethyl)phenyl)amino)nicotinamide] | 0.00118 | > 10 | > 10 | –
24 | CCONC(=O)c1cnc(NC(=O)C2CC2)cc1Nc1cc(F)cc(-c2ncc(F)cn2)c1OC [Example 210, 6-(cyclopropylcarboxamido)-N-ethoxy-4-((5-fluoro-3-(5-fluoropyrimidin-2-yl)-2-methoxyphenyl)amino)nicotinamide] | – | > 10 | > 10 | 0.000958
25 | CONC(=O)c1cnc(Nc2ccc(F)cn2)cc1Nc1ccc(Cl)cc1N(C)S(C)(=O)=O [Example 46, 4-((4-chloro-2-(N-methylmethanesulfonamido)phenyl)amino)-6-((5-fluoropyridin-2-yl)amino)-N-methoxy nicotinamide] | – | > 10 | > 10 | 0.00109
26 | CONC(=O)c1cnc(NC(=O)C2CC2)cc1Nc1ccccc1N(C)S(C)(=O)=O [Example 2, 6-(cyclopropylcarboxamido)-N-methoxy-4-((2-(N-methylmethanesulfonamido)phenyl)amino)nicotinamide] | – | > 10 | > 10 | 0.00158
27 | CCONC(=O)c1cnc(Nc2cc(C)nc(C)n2)cc1Nc1cccc(-c2ncn(C)n2)c1OC [Example 268, 6-((2,6-dimethylpyrimidin-4-yl)amino)-N-ethoxy-4-((2-methoxy-3-(1-methyl-1H-1,2,4-triazol-3-yl)phenyl)amino)nicotinamide] | – | > 10 | > 10 | 0.000315
